This passage reports IC50 and Ki results from patent US9089569B2, “1,2,6-substituted benzimidazoles as flap modulators” (JANSSEN PHARMACEUTICA NV, priority 2013, dated 2015).

As usually defined, the IC50 is the point on the concentration scale where inhibition reaches its midpoint. Usually Ki stands for the dissociation constant of the complex between target and ligand, obtained from inhibition or displacement. A lower Ki goes with higher affinity.

Where a name gives a salt, the structure may show the parent alone. Bounds are passed on as bounds.

Assay [1] concerns leukotriene pathway in human whole blood (LTB4). As to the kind of experiment: Human whole blood assay (LTB4, A23187-stimulated). It is filed as cell-based. The conditions noted are these: human whole blood diluted 1:1, calcium ionophore A23187 stimulation, LTB4 levels. The method, then:
An in vitro cellular assay was performed using human whole blood collected in heparin-containing tubes, which was used to test the ability of compounds to modulate the leukotriene pathway in human whole blood. The blood was diluted 1:1 in RPMI medium, pre-incubated for 15 min at 37° Celsius with test compounds at various concentrations, and then stimulated with calcium ionophore, A23187 (7 μg/mL), for 30 min at 37° Celsius. The samples were then centrifuged and plasma was removed. The plasma was diluted in assay buffer and LTB4 levels were measured using a commercial kit (Enzo Life Sciences). The concentration of each compound that was required for half-maximal inhibition (modulation) of […] (IC50) was calculated by a 4-parameter equation using the program GraphPad Prism (GraphPad software). For analysis, data are imported into 3DX and aggregated as the average of duplicates of the calculated ratios in order to calculate Ki and IC50 values. Numbers in parentheses are the number of runs for the assay.

The next assay deals with human FLAP (Homo sapiens (Human), UniProt P20292). As to the kind of experiment: FLAP binding assay (HTRF). The conditions noted are these: wild type FLAP-containing membranes, HTRF format. As to the method: The assay below is used to test the modulatory activity of compounds against FLAP. Human and mouse FLAP-encoding DNA was amplified by polymerase chain reaction and cloned into pFastBac1 (Invitrogen) with a NH2-terminal 6-His tag for expression in Spodoptera frugiperda (Sf-9) cells. FLAP-containing membranes were prepared as was a FITC-labeled FLAP modulator (3-(3-(tert-butylthio)-1-(4-chlorobenzyl)-5-(quinolin-2-ylmethoxy)-1H-indol-2-yl)-2,2-dimethylpropanoic acid). The FLAP binding assay is performed in HTRF format (homogeneous time resolved fluorescence). […] The reaction is allowed to proceed for two hours after which the plate is read on an Envision plate reader in HTRF mode. Data are expressed as a HTRF ratio.
Chain of human FLAP (P20292 whole entry): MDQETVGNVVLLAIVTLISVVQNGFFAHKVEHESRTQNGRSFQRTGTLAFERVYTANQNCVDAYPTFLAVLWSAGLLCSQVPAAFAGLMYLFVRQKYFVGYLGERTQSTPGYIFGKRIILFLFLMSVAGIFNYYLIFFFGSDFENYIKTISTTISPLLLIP
For human FLAP binding assays, data are analyzed with 3DX Explorer software. […] For analysis, data from multiple runs are averaged and each compound may be tested in 2 to 20 runs. Each run comprises two plates and each plate includes duplicates. Data from each plate is averaged and data are imported into 3DX. The data from multiple runs are aggregated as the average of duplicates of the calculated ratios in order to calculate Ki and IC50 values. Numbers in parentheses are the number of runs for the assay.

Consider `Cc1ccc(COc2ccc3nc([C@@H]4[C@H](C(=O)O)C4(C)C)n(Cc4ccc(OC(F)(F)F)cc4)c3c2)nc1` (racemic) [Example 25, racemic cis-2,2-Dimethyl-3-{6-[(5-methylpyridin-2-yl)methoxy]-1-[4-(trifluoromethoxy)benzyl]-1H-benzimidazol-2-yl}cyclopropanecarboxylic acid], for which the IC50 in assay [1] amounted to 3120 nM.

`Cc1ccc(COc2ccc3nc([C@H]4CCCC[C@H]4C(=O)O)n(Cc4ccc(OC(F)(F)F)c(Cl)c4)c3c2)nc1` (racemic) [Example 32, racemic cis-2-{1-[3-Chloro-4-(trifluoromethoxy)benzyl]-6-[(5-methylpyridin-2-yl)methoxy]-1H-benzimidazol-2-yl}cyclohexanecarboxylic acid]: the IC50 in assay [1] was determined as 210 nM.

`Cn1ccc(COc2cc3c(cc2F)nc([C@@H]2CCCC[C@@H]2C(=O)O)n3Cc2ccc(OC(F)(F)F)cc2F)n1` (racemic) [Example 90, racemic cis-2-{5-Fluoro-1-[2-fluoro-4-(trifluoromethoxy)benzyl]-6-[(1-methyl-1H-pyrazol-3-yl)methoxy]-1H-benzimidazol-2-yl}cyclohexanecarboxylic acid]: the Ki at human FLAP was 27 nM.

As for `Cn1ccc(COc2cc(F)c3nc(C4CCCC[C@@H]4C(=O)O)n(Cc4ccc(N5CC(F)(F)C5)cc4)c3c2)n1` (mixture of isomers) [Example 168, racemic cis-2-{1-[4-(3,3-Difluoroazetidin-1-yl)benzyl]-4-fluoro-6-[(1-methyl-1H-pyrazol-3-yl)methoxy]-1H-benzimidazol-2-yl}cyclohexanecarboxylic acid as the formate salt], the IC50 in assay [1] turned out to be 3570 nM.

`Cn1ccc(COc2ccc3nc([C@@H]4CCCC[C@@H]4C(=O)O)n(Cc4ccc(OC(F)(F)F)cc4)c3c2)n1` (relative stereo) [Example 36, (1S*,2R*)-2-{6-[(1-Methyl-1H-pyrazol-3-yl)methoxy]-1-[4-(trifluoromethoxy)benzyl]-1H-benzimidazol-2-yl}cyclohexanecarboxylic acid]: the IC50 in assay [1] (Homo sapiens) was 590 nM.

With `Cn1ccc(COc2ccc3nc([C@@H]4CCCC[C@@H]4C(=O)O)n(Cc4ccc(OC(F)(F)F)cc4)c3c2)n1` (relative stereo) [Example 45, (1R*,2S*)-2-{6-[(1-Methyl-1H-pyrazol-3-yl)methoxy]-1-[4-(trifluoromethoxy)benzyl]-1H-benzimidazol-2-yl}cyclohexanecarboxylic acid], the IC50 in assay [1] (Homo sapiens) was more than 10000 nM.

On to `CCC(CC)(Cc1nc2ccc(OCc3ccn(C)n3)cc2n1Cc1ccc(-c2ccc(C(F)(F)F)cc2)cc1)C(=O)O` [Example 188, 2-ethyl-2-((6-((1-methyl-1H-pyrazol-3-yl)methoxy)-1-((4′-(trifluoromethyl)-[1,1′-biphenyl]-4-yl)methyl)-1H-benzo[d]imidazol-2-yl)methyl)butanoic acid], for which the IC50 in assay [1] is 550 nM.
